The source of these data is ChEMBL document CHEMBL1149049, “Increased feline cerebral blood flow induced by dehydroevodiamine hydrochloride from Evodia rutaecarpa” (J Nat Prod, 1994).

Active and inactive are the calls of the source. No cut-off for these calls is given here.

In this experiment the test system is Felis catus. Briefly: Increase in cerebral blood flow in anesthetized cat suprasylvian gyrus at 0.3 mg/kg, iv. Format: functional, organism-based. Set-up: dose 0.3 mg/kg.

Consider `C[n+]1c2n(c(=O)c3ccccc31)CCc1c-2[nH]c2ccccc12`, for which the result was Active.
